According to article PMC3139011 (Archives of biochemistry and biophysics, 2011):

Assays:
hDUOX1_1–593 = molecular target: T1, hDUOX1_1–593 (Homo sapiens, UniProt Q9NRD9); test: heme titration, difference absorbance spectroscopy; format: binding
T1 sequence (Q9NRD9 1-593): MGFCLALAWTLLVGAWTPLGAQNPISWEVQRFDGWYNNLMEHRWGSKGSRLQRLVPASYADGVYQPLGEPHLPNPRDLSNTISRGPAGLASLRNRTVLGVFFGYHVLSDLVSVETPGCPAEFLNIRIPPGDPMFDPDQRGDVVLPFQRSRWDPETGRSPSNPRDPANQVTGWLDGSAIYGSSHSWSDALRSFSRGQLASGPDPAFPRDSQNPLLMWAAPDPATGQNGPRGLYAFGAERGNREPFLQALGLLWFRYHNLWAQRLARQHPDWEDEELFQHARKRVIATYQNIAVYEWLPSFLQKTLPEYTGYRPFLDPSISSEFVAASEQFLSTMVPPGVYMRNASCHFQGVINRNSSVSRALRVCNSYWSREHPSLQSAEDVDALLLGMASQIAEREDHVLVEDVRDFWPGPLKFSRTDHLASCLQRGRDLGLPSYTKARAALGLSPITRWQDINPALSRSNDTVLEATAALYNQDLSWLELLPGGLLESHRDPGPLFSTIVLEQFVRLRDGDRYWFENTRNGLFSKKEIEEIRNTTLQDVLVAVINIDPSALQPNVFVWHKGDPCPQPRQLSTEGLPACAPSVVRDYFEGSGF

hDUOX2_1–599 = molecular target: T2, hDUOX2_1–599 (Homo sapiens, UniProt Q9NRD8); test: heme titration, difference absorbance spectroscopy; format: binding
T2 sequence (Q9NRD8 1-599): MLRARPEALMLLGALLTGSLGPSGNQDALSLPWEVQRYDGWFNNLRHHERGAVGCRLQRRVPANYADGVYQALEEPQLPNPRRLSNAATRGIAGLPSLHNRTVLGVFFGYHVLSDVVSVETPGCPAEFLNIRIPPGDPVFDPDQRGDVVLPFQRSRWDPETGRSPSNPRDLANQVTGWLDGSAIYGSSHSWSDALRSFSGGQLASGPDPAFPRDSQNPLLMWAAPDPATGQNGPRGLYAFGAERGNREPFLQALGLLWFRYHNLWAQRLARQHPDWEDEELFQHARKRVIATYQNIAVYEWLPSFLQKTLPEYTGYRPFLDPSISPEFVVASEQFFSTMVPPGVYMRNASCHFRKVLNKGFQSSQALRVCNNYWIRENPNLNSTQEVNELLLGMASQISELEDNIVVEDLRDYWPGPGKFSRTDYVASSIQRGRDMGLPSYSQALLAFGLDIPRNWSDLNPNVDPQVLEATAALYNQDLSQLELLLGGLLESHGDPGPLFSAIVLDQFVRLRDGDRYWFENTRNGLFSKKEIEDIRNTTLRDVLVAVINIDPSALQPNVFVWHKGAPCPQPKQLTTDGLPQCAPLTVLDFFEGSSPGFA

SMILES: C=CC1=C(C)C2=Cc3c(C=C)c(C)c4[n]3[Fe]([Cl])[n]3c(c(C)c(CCC(=O)O)c3=CC3=NC(=C4)C(C)=C3CCC(=O)O)=CC1=N2 [heme]
- Kd (hDUOX1_1–593): 2.7 ± 0.1 µM
- Kd (hDUOX2_1–599): 2.4 ± 0.4 µM
